# Measurements as given in DBAASP.
# Experiments:
# Assay in all cases: ≥ marks a high value that may be exact or a test limit, other limits are often not marked, values filed in µg/mL are converted to µM
# [1] = test system: Pseudomonas aeruginosa ATCC 9027
# [2] = test system: Escherichia coli ATCC 8739
# Aeromonas hydrophila = test system: Aeromonas hydrophila
# [3] = test system: Edwardsiella tarda ATCC 15947
# [4] = test system: Vibrio parahaemolyticus ATCC 17802
# Aeromonas salmonicida = test system: Aeromonas salmonicida
# [5] = test system: Staphylococcus epidermidis ATCC 35984
# Syspastospora parasitica = test system: Syspastospora parasitica
# [6] = test system: Staphylococcus aureus ATCC 33592
# [7] = test system: Pseudomonas aeruginosa PAO1
# Escherichia coli BL21 = test system: Escherichia coli BL21
# [8] = test system: Streptococcus pyogenes M1T1 5448
# [9] = test system: Staphylococcus aureus CMCC 26003
# Vibrio parahaemolyticus = test system: Vibrio parahaemolyticus
# [10] = test system: Pseudomonas aeruginosa CMCC 10104
# [11] = test system: Escherichia coli CMCC 44102
# Klebsiella pneumoniae = test system: Klebsiella pneumoniae
# [12] = test system: Clostridium perfringens ATCC 13124
# Vibrio alginolyticus = test system: Vibrio alginolyticus
# Candida glabrata = test system: Candida glabrata
# Vibrio splendidus = test system: Vibrio splendidus
# Acinetobacter baumannii = test system: Acinetobacter baumannii
# Aeromonas sobria = test system: Aeromonas sobria
# [13] = test system: Enterococcus faecalis ATCC 29212
# [14] = test system: Staphylococcus epidermidis
# Candida albicans 1 = test system: Candida albicans 1
# [15] = test system: Bacillus cereus CMCC 63301
# Vibrio harveyi = test system: Vibrio harveyi
# Enterococcus faecium = test system: Enterococcus faecium
# [16] = test system: Bacillus subtilis CMCC 63501
# [17] = test system: Escherichia coli ATCC 25922
# [18] = test system: Shigella flexneri ATCC 12022
# Vibrio vulnificus = test system: Vibrio vulnificus
# [19] = test system: Candida albicans CMCC 98001
# [20] = test system: Enterococcus faecium E007
# [21] = test system: Pseudomonas aeruginosa PA14
# [22] = test system: Acinetobacter baumannii ATCC 7978
# [23] = test system: Staphylococcus aureus ATCC 29231
structure (smiles),measurement,setting,value
NC(=O)[C@H](Cc1ccc(O)cc1)NC(=O)[C@H](Cc1c[nH]c2ccccc12)NC(=O)[C@H](CCCN=C(N)N)NC(=O)[C@H](CCCN=C(N)N)NC(=O)[C@H](Cc1ccc(O)cc1)NC(=O)[C@H](Cc1c[nH]c2ccccc12)NC(=O)[C@H](CCCN=C(N)N)NC(=O)[C@H](CCCN=C(N)N)NC(=O)[C@H](Cc1ccc(O)cc1)NC(=O)[C@H](Cc1c[nH]c2ccccc12)NC(=O)[C@H](CCCN=C(N)N)NC(=O)[C@@H](N)CCCN=C(N)N [RRWYRRWYRRWY],MIC,[1],0.49 µM
same,MIC,[2],7.81 µM
same,MIC,Aeromonas hydrophila,≥ 125 µM
same,MIC,[3],≥ 62.5 µM
same,MIC,[4],≥ 125 µM
same,MIC,Aeromonas salmonicida,≥ 500 µM
same,MIC,[5],15.6 µM
same,MIC,Syspastospora parasitica,7.81 µM
same,MIC,[6],31.2 µM
CC[C@H](C)[C@H](NC(=O)[C@H](CCCN=C(N)N)NC(=O)[C@H](CC(N)=O)NC(=O)[C@@H](NC(=O)CNC(=O)[C@H](C)N)[C@@H](C)O)C(=O)N[C@@H](C)C(=O)N[C@@H](CCCCN)C(=O)N[C@@H](CCC(=O)O)C(=O)N[C@@H](CC(C)C)C(=O)N[C@@H](CCCN=C(N)N)C(=O)N[C@@H](CCCN=C(N)N)C(=O)N[C@@H](Cc1ccc(O)cc1)C(=O)N[C@H](C(=O)N[C@@H](CCCN=C(N)N)C(=O)N[C@@H](CCCCN)C(=O)N[C@H](C(=O)NCC(=O)N[C@@H](CCCN=C(N)N)C(=O)N[C@H](C(=O)N[C@@H](CCCCN)C(=O)N[C@@H](CCCN=C(N)N)C(=O)N[C@@H](CCCCN)C(=O)N[C@@H](C)C(=O)N[C@@H](Cc1c[nH]c2ccccc12)C(=O)O)[C@@H](C)CC)C(C)C)[C@@H](C)CC [AGTNRIAKELRRYIRKVGRIKRKAW],MIC,[7],16 µM
same,MIC,Escherichia coli BL21,0.25 µM
same,MIC,[8],2 µM
CC[C@H](C)[C@H](NC(=O)[C@H](CC(N)=O)NC(=O)[C@H](CS)NC(=O)CNC(=O)[C@@H](N)CCC(=O)O)C(=O)N[C@@H](CC(C)C)C(=O)N[C@@H](CS)C(=O)N[C@@H](CC(C)C)C(=O)N[C@@H](CC(C)C)C(=O)N[C@@H](CCCCN)C(=O)N[C@@H](CCCN=C(N)N)C(=O)N[C@@H](CCCCN)C(=O)N[C@H](C(=O)N[C@@H](CCCCN)C(=O)N[C@@H](C)C(=O)N[C@H](C(=O)N[C@@H](CCCCN)C(=O)N[C@@H](CC(N)=O)C(=O)N[C@H](C(=O)N[C@H](C(=O)N[C@@H](CCCCN)C(=O)N[C@@H](CC(N)=O)C(=O)N[C@H](C(=O)N[C@H](C(=O)N[C@@H](CCCCN)C(=O)N[C@@H](CO)C(=O)N[C@H](C(=O)N[C@H](C(=O)NCC(=O)O)C(C)C)C(C)C)C(C)C)C(C)C)C(C)C)C(C)C)C(C)C)C(C)C [EGCNILCLLKRKVKAVKNVVKNVVKSVVG],MIC,[9],2.99 µM
same,MIC,Vibrio parahaemolyticus,2.99 µM
same,MIC,[10],31.9 µM
same,MIC,[11],5.97 µM
same,MIC,Klebsiella pneumoniae,> 31.9 µM
same,MIC,[12],11.9 µM
same,MIC,Vibrio alginolyticus,31.9 µM
same,MIC,Candida glabrata,31.9 µM
same,MIC,Vibrio splendidus,23.9 µM
same,MIC,Acinetobacter baumannii,31.9 µM
same,MIC,Aeromonas hydrophila,11.9 µM
same,MIC,Aeromonas sobria,31.9 µM
same,MIC,[13],> 31.9 µM
same,MIC,[14],31.9 µM
same,MIC,Candida albicans 1,31.9 µM
same,MIC,[15],31.9 µM
same,MIC,Vibrio harveyi,23.9 µM
same,MIC,Enterococcus faecium,31.9 µM
same,MIC,[16],11.9 µM
same,MIC,[17],2.99 µM
same,MIC,[18],5.97 µM
same,MIC,Vibrio vulnificus,31.9 µM
same,MIC,[19],31.9 µM
CC[C@H](C)[C@H](NC(=O)[C@H](CCCCN)NC(=O)[C@H](Cc1c[nH]c2ccccc12)NC(=O)[C@@H](N)CC(C)C)C(=O)NCC(=O)N[C@@H](CCCCN)C(=O)N[C@@H](CCCCN)C(=O)N[C@H](C(=O)N[C@@H](Cc1c[nH]c2ccccc12)C(=O)N[C@@H](CCCN=C(N)N)C(=O)N[C@H](C(=O)N[C@@H](CC(C)C)C(=O)N[C@@H](Cc1c[nH]c2ccccc12)C(=O)N[C@@H](CC(N)=O)C(=O)N[C@@H](Cc1c[nH]c2ccccc12)C(=O)N[C@@H](CCCN=C(N)N)C(=O)O)C(C)C)[C@@H](C)CC [LWKIGKKIWRVLWNWR],MIC,[20],≥ 58.6 µM
same,MIC,[21],14.7 µM
same,MIC,[22],7.33 µM
same,MIC,[23],1.83 µM
